The text below walks through data of US10287301B2 (Achillion Pharmaceuticals, Inc., priority 2015, dated 2019).

pIC50: −log10 of the molar value.

The target in one assay is Human Factor D (Homo sapiens (Human), UniProt P00746). In words: Human Factor D Assay. It is filed as biochemical.
Chain of Human Factor D (P00746 26-253): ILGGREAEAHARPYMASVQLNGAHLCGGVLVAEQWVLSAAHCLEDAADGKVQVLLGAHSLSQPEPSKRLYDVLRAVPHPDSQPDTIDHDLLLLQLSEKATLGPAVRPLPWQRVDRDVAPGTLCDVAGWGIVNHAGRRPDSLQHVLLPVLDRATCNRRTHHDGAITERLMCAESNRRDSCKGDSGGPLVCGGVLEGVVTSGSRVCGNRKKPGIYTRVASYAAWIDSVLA
Conditions: not given
The gist of the method: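 Serum-purified human Factor D (80 nM final) was preincubated with test compound at various concentrations for 5 min at room temperature in 50 mM Tris, 1M NaCl, pH 7.5. Z-L-Lys-SBzl and DTNB were then added at 100 μM each. IC50 came from nonlinear regression of reaction rates versus compound concentration.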
For orientation: pIC50 means the negative decadic logarithm of the IC50, by convention in mol/L. For `CCc1cn(CC(=O)N2NCCC2C(=O)Nc2cccc(-c3ccccc3Cl)c2F)c2ccc(-c3cnc(C)nc3)cc12` (stereo not drawn) [Compound 267, N-(2′-chloro-2-fluorobiphenyl-3-yl)-2-(2-(3-ethyl-5-(2-methylpyrimidin-5-yl)-1H-indol-1-yl)acetyl)pyrazolidine-3-carboxamide], the pIC50 is 5.00 to 6.00.

Still in this assay, the particulars now being: Human Factor D assay of Example 8; Table 2; read-out: IC50.
For the compound `CC(=O)c1nn(CC(=O)N2C[C@H](F)C[C@H]2C(=O)Nc2cccc(Br)n2)c2ccc(-c3cnc4c(C#N)c(C)nn4c3)cc12` [Compound 262, (2S,4R)-1-(2-(3-acetyl-5-(3-cyano-2-methylpyrazolo[1,5-a]pyrimidin-6-yl)-1H-indazol-1-yl)acetyl)-N-(6-bromopyridin-2-yl)-4-fluoropyrrolidine-2-carboxamide], the pIC50 was greater than 6.00.
On the same count and under the same terms, for `CC(=O)c1nn(CC(=O)N2C[C@H](F)C[C@H]2C(=O)Nc2cccc(Br)n2)c2ccc(-c3cnc4c(C#N)cnn4c3)cc12` [Compound 263, (2S,4R)-1-(2-(3-acetyl-5-(3-cyanopyrazolo[1,5-a]pyrimidin-6-yl)-1H-indazol-1-yl)acetyl)-N-(6-bromopyridin-2-yl)-4-fluoropyrrolidine-2-carboxamide] the value was greater than 6.00; for `CC(=O)c1nn(CC(=O)N2C[C@H](F)C[C@H]2C(=O)Nc2cccc(C(F)(F)F)n2)c2ccc(-c3cnc4cc(C)nn4c3)cc12` [Compound 264, (2S,4R)-1-(2-(3-acetyl-5-(2-methylpyrazolo[1,5-a]pyrimidin-6-yl)-1H-indazol-1-yl)acetyl)-4-fluoro-N-(6-(trifluoromethyl)pyridin-2-yl)pyrrolidine-2-carboxamide], greater than 6.00; for `CC(=O)c1nn(CC(=O)N2C[C@H](F)C[C@H]2C(=O)Nc2cccc(C#N)n2)c2ccc(-c3cnc4cc(C)nn4c3)cc12` [Compound 265, (2S,4R)-1-(2-(3-acetyl-5-(2-methylpyrazolo[1,5-a]pyrimidin-6-yl)-1H-indazol-1-yl)acetyl)-N-(6-cyanopyridin-2-yl)-4-fluoropyrrolidine-2-carboxamide], greater than 6.00.
For `CC(=O)c1nn(CC(=O)N2C[C@H](F)C[C@H]2C(=O)Nc2cccc(Br)n2)c2ccc(-c3cnc(C)nc3C)cc12` [Compound 266, (2S,4R)-1-(2-(3-acetyl-5-(2,4-dimethylpyrimidin-5-yl)-1H-indazol-1-yl)acetyl)-N-(6-bromopyridin-2-yl)-4-fluoropyrrolidine-2-carboxamide], the negative-log IC50 (pIC50) is greater than 6.00.
Still for that read-out and setting: in the case of `CC(=O)c1nn(CC(=O)N2C[C@H](F)C[C@H]2C(=O)Nc2cccc(Br)n2)c2ccc(-c3cnc4c(C)cnn4c3)cc12` [Compound 268, (2S,4R)-1-(2-(3-acetyl-5-(3-methylpyrazolo[1,5-a]pyrimidin-6-yl)-1H-indazol-1-yl)acetyl)-N-(6-bromopyridin-2-yl)-4-fluoropyrrolidine-2-carboxamide] it was greater than 6.00; in that of `COCCNc1ncc(-c2ccc3c(c2)c(C(C)=O)nn3CC(=O)N2C[C@H](F)C[C@H]2C(=O)Nc2cccc(Br)n2)cn1` [Compound 269, (2S,4R)-1-(2-(3-acetyl-5-(2-(2-methoxyethylamino)pyrimidin-5-yl)-1H-indazol-1-yl)acetyl)-N-(6-bromopyridin-2-yl)-4-fluoropyrrolidine-2-carboxamide], greater than 6.00.
On the same count and under the same terms, in the case of `CC(=O)c1nn(CC(=O)N2CC[C@@H](N)[C@H]2C(=O)Nc2cccc(Br)n2)c2ccc(-c3cnc(C)nc3)cc12` [Compound 270, (2S,3R)-1-(2-(3-Acetyl-5-(2-methylpyrimidin-5-yl)-1H-indazol-1-yl)acetyl)-3-amino-N-(6-bromopyridin-2-yl)pyrrolidine-2-carboxamide] it was greater than 6.00; in that of `CC(=O)c1nn(CC(=O)N2C(=O)CC[C@H]2C(=O)Nc2cccc(Br)n2)c2ccc(-c3cnc(C)nc3)cc12` [Compound 271, (S)-1-(2-(3-Acetyl-5-(2-methylpyrimidin-5-yl)-1H-indazol-1-yl)acetyl)-N-(6-bromopyridin-2-yl)-5-oxopyrrolidine-2-carboxamide], greater than 6.00; in that of `CC(=O)c1nn(CC(=O)N2C[C@H](F)C[C@H]2C(=O)Nc2cccc(-c3c(F)c(F)c(F)c(F)c3F)c2F)c2ccc(-c3cnc(C)nc3)cc12` [Compound 272, (2S,4R)-1-(2-(3-acetyl-5-(2-methylpyrimidin-5-yl)-1H-indazol-1-yl)acetyl)-4-fluoro-N-(2,2′,3′,4′,5′,6′-hexafluorobiphenyl-3-yl)pyrrolidine-2-carboxamide], greater than 6.00.
The same measure, in the same setting: for `CC(=O)c1nn(CC(=O)N2C[C@H](F)C[C@H]2C(=O)Nc2cccc(Br)c2F)c2ccc(-c3cnc(C)nc3)cc12` [Compound 273, (2S,4R)-1-(2-(3-acetyl-5-(2-methylpyrimidin-5-yl)-1H-indazol-1-yl)acetyl)-N-(3-bromo-2-fluorophenyl)-4-fluoropyrrolidine-2-carboxamide] the value was greater than 6.00; for `CC(=O)c1nn(CC(=O)N2C[C@H](F)C[C@H]2C(=O)Nc2cccc(Br)n2)c2ccc(-c3cnc4cc(C(C)C)nn4c3)cc12` [Compound 274, (2S,4R)-1-(2-(3-acetyl-5-(2-isopropylpyrazolo [1,5-a]pyrimidin-6-yl)-1H-indazol-1-yl)acetyl)-N-(6-bromopyridin-2-yl)-4-fluoropyrrolidine-2-carboxamide], greater than 6.00; for `COc1cccc(NC(=O)[C@@H]2C[C@@H](F)CN2C(=O)Cn2nc(C(C)=O)c3cc(-c4cnc5cc(C)nn5c4)ccc32)c1F` [Compound 275, (2S,4R)-1-(2-(3-acetyl-5-(2-methylpyrazolo[1,5-a]pyrimidin-6-yl)-1H-indazol-1-yl)acetyl)-4-fluoro-N-(2-fluoro-3-methoxyphenyl) pyrrolidine-2-carboxamide], greater than 6.00.
`CC(=O)c1cn(CC(=O)N2C[C@H](F)C[C@H]2C(=O)Nc2cccc(OC(F)(F)F)c2F)c2ccc(-c3cnc4cc(C)nn4c3)cc12` [Compound 276, (2S,4R)-1-(2-(3-acetyl-5-(2-methylpyrazolo[1,5-a]pyrimidin-6-yl)-1H-indol-1-yl)acetyl)-4-fluoro-N-(2-fluoro-3-(trifluoromethoxy)phenyl)pyrrolidine-2-carboxamide]: the negative logarithm of the IC50 (pIC50) is greater than 6.00.
As to `CC(=O)c1cn(CC(=O)N2C[C@H](F)C[C@H]2C(=O)Nc2cccc(Br)n2)c2ccc(-c3cnc4cc(C)nn4c3)cc12` [Compound 277, (2S,4R)-1-(2-(3-acetyl-5-(2-methylpyrazolo[1,5-a]pyrimidin-6-yl)-1H-indol-1-yl)acetyl)-N-(6-bromopyridin-2-yl)-4-fluoropyrrolidine-2-carboxamide], the pIC50 was greater than 6.00.
Same read-out and setting: for `Cc1ncc(-c2cc3c(C(N)=O)nn(CC(=O)N4C[C@H](F)C[C@H]4C(=O)Nc4cccc(Br)n4)c3cn2)cn1` [Compound 278, 1-(2-((2S,4R)-2-(6-bromopyridin-2-ylcarbamoyl)-4-fluoropyrrolidin-1-yl)-2-oxoethyl)-5-(2-methylpyrimidin-5-yl)-1H-pyrazolo[3,4-c]pyridine-3-carboxamide] the value was greater than 6.00; for `C=CCCCCCCCCCNc1ncc(-c2ccc3c(c2)c(C(C)=O)nn3CC(=O)N2C[C@H](F)C[C@H]2C(=O)NCc2cc(C=C)cc(Cl)c2F)cn1` [Compound 279, (2S,4R)-1-(2-(3-acetyl-5-(2-(undec-10-enylamino)pyrimidin-5-yl)-1H-indazol-1-yl)acetyl)-N-(3-chloro-2-fluoro-5-vinylbenzyl)-4-fluoropyrrolidine-2-carboxamide], less than 5.00.
Regarding `CC(=O)c1nn(CC(=O)N2C[C@H](F)C[C@H]2C(=O)Nc2cccc(OC(F)F)c2F)c2ccc(-c3cnc4cc(C)nn4c3)cc12` [Compound 281, (2S,4R)-1-(2-(3-acetyl-5-(2-methylpyrazolo[1,5-a]pyrimidin-6-yl)-1H-indazol-1-yl)acetyl)-N-(3-(difluoromethoxy)-2-fluorophenyl)-4-fluoropyrrolidine-2-carboxamide], the pIC50 is greater than 6.00.
On to `CC(=O)c1nn(CC(=O)N2C[C@H](F)C[C@H]2C(=O)Nc2cccc(OC(F)F)c2F)c2ccc(-c3cnc4ccnn4c3)cc12` [Compound 282, (2S,4R)-1-(2-(3-acetyl-5-(pyrazolo[1,5-a]pyrimidin-6-yl)-1H-indazol-1-yl)acetyl)-N-(3-(difluoromethoxy)-2-fluorophenyl)-4-fluoropyrrolidine-2-carboxamide], for which the negative-log IC50 (pIC50) was greater than 6.00.
`Cc1cc2ncc(-c3cc4c(C(N)=O)nn(CC(=O)N5C[C@H](F)C[C@H]5C(=O)Nc5cccc(OC(F)(F)F)c5F)c4cn3)cn2n1` [Compound 283, 1-(2-((2S,4R)-4-fluoro-2-(2-fluoro-3-(trifluoromethoxy)phenylcarbamoyl)pyrrolidin-1-yl)-2-oxoethyl)-5-(2-methylpyrazolo[1,5-a]pyrimidin-6-yl)-1H-pyrazolo[3,4-c]pyridine-3-carboxamide]: the pIC50 was greater than 6.00.
Same read-out and setting: for `Cc1cc2ncc(-c3ccc4c(c3)c(C(N)=O)nn4CC(=O)N3C[C@H](F)C[C@H]3C(=O)Nc3cccc(Br)n3)cn2n1` [Compound 284, 1-(2-((2S,4R)-2-(6-bromopyridin-2-ylcarbamoyl)-4-fluoropyrrolidin-1-yl)-2-oxoethyl)-5-(2-methylpyrazolo[1,5-a]pyrimidin-6-yl)-1H-indazole-3-carboxamide] the value was greater than 6.00; for `CC(=O)c1nn(CC(=O)N2CC=C[C@H]2C(=O)Nc2cccc(-c3ccccc3Cl)c2F)c2ccc(-c3cnc(C)nc3)cc12` [Compound 286, (S)-1-(2-(3-acetyl-5-(2-methylpyrimidin-5-yl)-1H-indazol-1-yl)acetyl)-N-(2′-chloro-2-fluorobiphenyl-3-yl)-2,5-dihydro-1H-pyrrole-2-carboxamide], greater than 6.00; for `CCOC(=O)c1cc2ncc(-c3ccc4c(c3)c(C(C)=O)nn4CC(=O)N3C[C@H](F)C[C@H]3C(=O)Nc3cccc(Br)n3)cn2n1` [Compound 287, ethyl 6-(3-acetyl-1-(2-((2S,4R)-2-(6-bromopyridin-2-ylcarbamoyl)-4-fluoropyrrolidin-1-yl)-2-oxoethyl)-1H-indazol-5-yl)pyrazolo[1,5-a]pyrimidine-2-carboxylate], greater than 6.00.
